Results taken from US8309718B2, “4-pyrazolyl-N-arylpyrimidin-2-amines and 4-pyrazolyl-N-heteroarylpyrimidin-2-amines as janus kinase inhibitors” (Incyte Corporation, priority 2007, dated 2012).

molecular target: T1, human JAK2 (Homo sapiens, UniProt O60674); experiment: In vitro JAK kinase assay (HTRF, phosphorylation of biotinylated peptide); type: biochemical; conditions: catalytic domain a.a. 828-1132, 30 μM ATP, 500 nM peptide, room temperature 1 hr; read-out: JAK-2 IC50
T1 construct: JAK2 (a.a. 828-1132); His tag (N); made in house; host or cells: insect cells (baculovirus)
Method in brief: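 IC50 from HTRF detection (Eu-Py20 antibody, SA-APC) of biotinylated-peptide phosphorylation (500 nM), run 1 h at RT. Enzyme: N-His human JAK2 kinase domain a.a. 828-1132 from insect cells; ATP 30 μM; buffer 50 mM Tris pH 7.8 with NaCl, DTT, BSA.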

T1 sequence (O60674 828-1132): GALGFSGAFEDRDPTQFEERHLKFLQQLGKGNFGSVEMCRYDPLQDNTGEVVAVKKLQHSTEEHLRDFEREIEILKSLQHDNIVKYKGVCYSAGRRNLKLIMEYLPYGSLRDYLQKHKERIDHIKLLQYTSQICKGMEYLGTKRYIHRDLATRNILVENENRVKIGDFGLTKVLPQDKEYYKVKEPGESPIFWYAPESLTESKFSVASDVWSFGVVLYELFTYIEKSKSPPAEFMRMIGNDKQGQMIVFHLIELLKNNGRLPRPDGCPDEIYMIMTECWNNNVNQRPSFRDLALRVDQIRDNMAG

Row | IC50 | SMILES
1 | < 100 nM | COc1cnc(Nc2ccc(C(=O)N3CCOCC3)cc2)nc1-c1cnn(C(CC#N)C2CCCC2)c1 (racemic) [Example 302, 3-cyclopentyl-3-(4-(5-methoxy-2-(4-(morpholine-4-carbonyl)phenylamino)pyrimidin-4-yl)-1H-pyrazol-1-yl)propanenitrile]
2 | < 100 nM | COc1cnc(Nc2ccc(C(=O)N3CCCC3)cc2)nc1-c1cnn(C(CC#N)C2CCCC2)c1 (racemic) [Example 303, 3-cyclopentyl-3-(4-(5-methoxy-2-(4-(pyrrolidine-1-carbonyl)phenylamino)pyrimidin-4-yl)-1H-pyrazol-1-yl)propanenitrile]
3 | < 100 nM | COc1cnc(Nc2ccc(C(=O)N3CCN(C)CC3)cc2)nc1-c1cnn(C(CC#N)C2CCCC2)c1 (racemic) [Example 304, 3-cyclopentyl-3-(4-(5-methoxy-2-(4-(4-methylpiperazine-1-carbonyl)phenylamino)pyrimidin-4-yl)-1H-pyrazol-1-yl)propanenitrile]
4 | < 100 nM | COc1cnc(Nc2ccc(C(=O)NC3CCOCC3)cc2)nc1-c1cnn(C(CC#N)C2CCCC2)c1 (racemic) [Example 305, 4-(4-(1-(2-cyano-1-cyclopentylethyl)-1H-pyrazol-4-yl)-5-methoxypyrimidin-2-ylamino)-N-(tetrahydro-2H-pyran-4-yl)benzamide]
5 | < 100 nM | N#CCC(C1CCCC1)n1cc(-c2ccnc(Nc3ccc(OCCN4CCCC4)cc3)n2)cn1 (racemic) [Example 306, 3-cyclopentyl-3-[4-(2-{[4-(2-pyrrolidin-1-ylethoxy)phenyl]amino}pyrimidin-4-yl)-1H-pyrazol-1-yl]propanenitrile]
6 | < 100 nM | N#CCC(C1CCOCC1)n1cc(-c2ccnc(Nc3ccc(N4CCOCC4)cc3)n2)cn1 (racemic) [Example 308, 3-(4-{2-[(4-morpholin-4-ylphenyl)amino]pyrimidin-4-yl}-1H-pyrazol-1-yl)-3-(tetrahydro-2H-pyran-4-yl)propanenitrile]
7 | < 100 nM | N#CCC(C1CCOCC1)n1cc(-c2ccnc(Nc3ccc(C(=O)N4CCCC4)cc3)n2)cn1 (racemic) [Example 310, 3-[4-(2-{[4-(pyrrolidin-1-ylcarbonyl)phenyl]amino}pyrimidin-4-yl)-1H-pyrazol-1-yl]-3-(tetrahydro-2H-pyran-4-yl)propanenitrile]
8 | < 100 nM | N#CCC(C1CCOCC1)n1cc(-c2ccnc(Nc3ccc(C(=O)N4CCOCC4)cc3)n2)cn1 (racemic) [Example 311, 3-[4-(2-{[4-(morpholin-4-ylcarbonyl)phenyl]amino}pyrimidin-4-yl)-1H-pyrazol-1-yl]-3-(tetrahydro-2H-pyran-4-yl)propanenitrile]
9 | < 100 nM | N#CCC(C1CCOCC1)n1cc(-c2ccnc(Nc3ccc(C(=O)N4CCC(O)CC4)cc3)n2)cn1 (racemic) [Example 312, 3-{4-[2-({4-[(4-hydroxypiperidin-1-yl)carbonyl]phenyl}amino)pyrimidin-4-yl]-1H-pyrazol-1-yl}-3-(tetrahydro-2H-pyran-4-yl)propanenitrile]
10 | < 100 nM | COC1CCN(C(=O)c2ccc(Nc3nccc(-c4cnn(C(CC#N)C5CCOCC5)c4)n3)cc2)CC1 (racemic) [Example 313, 3-{4-[2-({4-[(4-methoxypiperidin-1-yl)carbonyl]phenyl}amino)pyrimidin-4-yl]-1H-pyrazol-1-yl}-3-(tetrahydro-2H-pyran-4-yl)propanenitrile]
11 | < 100 nM | N#CCC(C1CCOCC1)n1cc(-c2ccnc(Nc3ccc(C(=O)N4CCC(C#N)CC4)cc3)n2)cn1 (racemic) [Example 314, 1-{4-[(4-{1-[2-cyano-1-(tetrahydro-2H-pyran-4-yl)ethyl]-1H-pyrazol-4-yl}pyrimidin-2-yl)amino]benzoyl}piperidine-4-carbonitrile]
12 | < 100 nM | N#CCC(C1CC1)n1cc(-c2ccnc(Nc3ccc(C(=O)N4CCC(C#N)CC4)cc3)n2)cn1 (racemic) [Example 318, 1-[4-({4-[1-(2-cyano-1-cyclopropylethyl)-1H-pyrazol-4-yl]pyrimidin-2-yl}amino)benzoyl]piperidine-4-carbonitrile]
13 | < 100 nM | CCS(=O)(=O)N1CC(CC#N)(n2cc(-c3ccnc(Nc4ccc(C(=O)N5CCC(C#N)CC5)cc4)n3)cn2)C1 (racemic) [Example 319, 1-{4-[(4-{1-[3-(cyanomethyl)-1-(ethylsulfonyl)azetidin-3-yl]-1H-pyrazol-4-yl}pyrimidin-2-yl)amino]benzoyl}piperidine-4-carbonitrile]
14 | < 100 nM | COc1cnc(Nc2cccc(-c3cnco3)c2)nc1-c1cnn(C(CC#N)C2CC2)c1 (racemic) [Example 320, 3-cyclopropyl-3-[4-(5-methoxy-2-{[3-(1,3-oxazol-5-yl)phenyl]amino}pyrimidin-4-yl)-1H-pyrazol-1-yl]propanenitrile]
15 | < 100 nM | COc1cnc(Nc2cccc([N+](=O)[O-])c2)nc1-c1cnn(C(CC#N)C2CC2)c1 (racemic) [Example 321, 3-cyclopropyl-3-(4-{5-methoxy-2-[(3-nitrophenyl)amino]pyrimidin-4-yl}-1H-pyrazol-1-yl)propanenitrile]
16 | < 100 nM | COc1cnc(Nc2cccc(C(=O)NC3CCOCC3)c2)nc1-c1cnn(C(CC#N)C2CC2)c1 (racemic) [Example 323, 3-({4-[1-(2-cyano-1-cyclopropylethyl)-1H-pyrazol-4-yl]-5-methoxypyrimidin-2-yl}amino)-N-(tetrahydro-2H-pyran-4-yl)benzamide]
17 | < 100 nM | COc1cnc(Nc2cccc(C(=O)N3CCCC3)c2)nc1-c1cnn(C(CC#N)C2CC2)c1 (racemic) [Example 324, 3-cyclopropyl-3-[4-(5-methoxy-2-{[3-(pyrrolidin-1-ylcarbonyl)phenyl]amino}pyrimidin-4-yl)-1H-pyrazol-1-yl]propanenitrile]
18 | < 100 nM | COc1cnc(Nc2cccc(C(=O)N3CCOCC3)c2)nc1-c1cnn(C(CC#N)C2CC2)c1 (racemic) [Example 328, 3-cyclopropyl-3-[4-(5-methoxy-2-{[3-(morpholin-4-ylcarbonyl)phenyl]amino}pyrimidin-4-yl)-1H-pyrazol-1-yl]propanenitrile]
19 | < 100 nM | COc1cnc(Nc2cccc(C(=O)N3CCC(O)CC3)c2)nc1-c1cnn(C(CC#N)C2CC2)c1 (racemic) [Example 329, 3-cyclopropyl-3-{4-[2-({3-[(4-hydroxypiperidin-1-yl)carbonyl]phenyl}amino)-5-methoxypyrimidin-4-yl]-1H-pyrazol-1-yl}propanenitrile]
20 | < 100 nM | COc1cnc(Nc2cccc(C(=O)N3CCC(OC)CC3)c2)nc1-c1cnn(C(CC#N)C2CC2)c1 (racemic) [Example 330, 3-cyclopropyl-3-{4-[5-methoxy-2-({3-[(4-methoxypiperidin-1-yl)carbonyl]phenyl}amino)pyrimidin-4-yl]-1H-pyrazol-1-yl}propanenitrile]
21 | < 100 nM | COc1cnc(Nc2cccc(C(=O)N3CCC(C#N)CC3)c2)nc1-c1cnn(C(CC#N)C2CC2)c1 (racemic) [Example 331, 1-[3-({4-[1-(2-cyano-1-cyclopropylethyl)-1H-pyrazol-4-yl]-5-methoxypyrimidin-2-yl}amino)benzoyl]piperidine-4-carbonitrile]
